“Also recorded” adds a separate entry of the source. Like-named read-outs stand apart in the source and are kept apart here.
What was measured:
[1] = test system: HCV (JFH-1) secreted by infected Huh-7.5.1 cells; assay: HCV secretion by JFH-1 infected Huh-7.5.1 cells (HCV core antigen ELISA, HCV positive strand RNA qPCR); assay type: cell-based, Hepatitis C virus
Method: (§1) The Huh-7.5.1 human hepatoma cell line and a plasmid containing the JFH-1 genome were kindly provided by Dr. Chisari (Scripps Research Institute, CA) and Dr. Wakita (National Institute of Infectious Diseases, Tokyo) respectively. Huh-7.5.1 cells were cultured in DMEM medium supplemented with 10% FBS, 200 units/ml penicillin and […] streptomycin in a 5% CO2-humidified incubator at 37° C. In vitro transcribed genomic JFH-1 RNA was delivered to cells by liposome-mediated transfection as described by Zhong et al. (2005)(8). Infected Huh-7.5.1 cells were passaged every 3 days and used at passage <15. The presence of HCV in these cells and corresponding supernatants were determined by quantitative Polymerase Chain Reaction (qPCR) and immunofluorescence staining. Primary human hepatocytes were purchased from BD Biosciences (San Jose, Calif.) cultured on a collagen-coated 12 well plate in C+H culture media composed of DMEM supplemented with 10% heat-inactivated FBS, 200 U/mL penicillin/streptomycin, 7.5 μg/mL hydrocortisone, 20 ng/mL EGF, 14 ng/mL glucagons and 0.5 U/mL insulin. The media was supplemented with 2% DMSO for long-term culture of the primary cells.
(§2) HCV-infected Huh-7.5.1 cells were plated on a 6-well plate at a density of 1×10^5 cells/cm^2 and cultured overnight in standard medium. Prior to the beginning of the experiment, the cells were washed 3 times with PBS and cultured with DMEM containing 5% lipoprotein-free FBS. Oleate, Insulin, Naringenin, and Brefeldin A were added at this time as described in the text. Following 24 hours of incubation, the plate was gently agitated to release mechanically bound particles, the media was collected, filtered to remove cellular debris, and stored at −80° C. for further analysis. The attached cells were washed 3 times with PBS, harvested, pelleted and stored at −80° C. for further analysis.
Huh-7.5.1 secreted HCV core antigen was detected in the media using Wako Chemicals (Cambridge, Mass.) ORTHO HCV antigen ELISA kit. Media was used as is, and the assay was carried out according to manufacturer's directions.
(§3) Virus samples collected in each experiment were filtered with a 0.45 μm filter and a volume of 100 μL for each sample was heated at 95° C. for 45 min. The reverse transcription reaction step was performed on a Mastercycler epgrdientS (Eppendorf) instrument using Omniscript and Sensiscript RT Kits (Qiagen). Real time PCR was performed on a Light Cycler LC-24 (Idaho Technology), using SuperScript™ III Platinum® CellsDirect Two-Step qRT-PCR Kits (Invitrogen) for quantitative PCR. For reverse transcription step, 2 μL of sample without RNA extraction were used. For real time PCR, 1 μL of the reverse transcription reactions was used. All reactions were performed according to the manufacturer's instructions using the primers detailed in Table 1.
However, this experiment was carried out on cells continuously producing the virus. Long-term treatment could potentially have a greater effect. […] This treatment is compared to the current standard-of-care, 1000 i.u. of Interferon α (IFNα). Both treatments lowered HCV RNA to a similar level, 96±5% and 93±5% respectively.

ApoB [2] = assay: ApoB secretion by JFH-1 infected Huh-7.5.1 cells (human ApoB ELISA); assay type: cell-based; conditions: 24 hours, brefeldin A 2.5 μg/ml
Method: as §2
Huh-7.5.1 and primary human hepatocytes secreted ApoB was detected in the media using ALerCHEK, Inc (Portland, Me.) total human ApoB ELISA kit. Media was diluted 1:10 with the specimen diluent, and the assay was carried out according to manufacturer's directions.
HCV-infected Huh-7.5.1 cells were plated T-25 tissue culture flasks at a density of 1×10^5 cells/cm^2 and cultured overnight in standard medium. Prior to silencing, the cells were washed 3 times with PBS and media was replaced with OptiMEM basal medium. SureSilencing shRNA (GFP) plasmids against human ApoB100 as well as shRNA plasmid control (500 ng/ml) were combined with lipofectamine 2000 in OptiMEM and incubated with the cells overnight. SureSilencing shRNA plasmids code for GFP which was used to sort the transfected Huh7.5.1 cells, using FACSAria (BD Biosciences) located at the Partners AIDS Research Center. Transfected cells (10% of the total population) were sorted directly into a 12-well plate and allowed to adhere overnight. Culture media was conditioned by the transfected cells for 24 hours and analyzed as described above.

ApoB [3] = assay: ApoB secretion by primary human hepatocytes (human ApoB ELISA); assay type: cell-based; conditions: 200 μM naringenin, 24 hours
Method: as §1, with “The media was supplemented with 2% DMSO for long-term culture of the primary cells.” left out
Huh-7.5.1 and primary human hepatocytes secreted ApoB was detected in the media using ALerCHEK, Inc (Portland, Me.) total human ApoB ELISA kit. […]
To assess the potential of naringenin-based treatment, we measured ApoB secretion in primary human hepatocytes following 24 hours stimulation with naringenin. […]

PPARα = PPARα transcription in infected Huh7.5.1 cells; assay type: cell-based, human; conditions: short term 24 hours stimulation of Huh7.5.1 cells
Method: as §3
PPARα and LXRα are ligand-activated transcription factors which control much of the fasted-to-fed transition and were previously shown to be important in the development of inflammation and insulin resistance. […] Following a short term 24 hours stimulation of Huh7.5.1 cells PPARα transcription increased by 86%, while LXRα was decreased by 25%. PPARα is the target of fibrates and plays a major role in the downregulation of inflammation, increasing sensitivity to insulin, and modulating dyslipidemia.

actin = assay: Actin mRNA level by qPCR in infected Huh7.5.1 cells; assay type: cell-based, human; conditions: naringenin 24 hours
Method: as §3

[4] = Intraperitoneal injection of naringenin to SCID mice: survival, liver enzymes, triglycerides; assay type: in vivo
Method: Male SCID mice (8 weeks old, 20-25 g) were obtained from Charles River Laboratories (Wilmington, Mass.). Animals were treated in accordance with NIH guidelines, and MGH Subcommittee on Research Animal Care. The mice were allowed free access to laboratory chow and water ad labium. Naringenin was dissolved in 0.5% Tween 20 diluted in saline and given by intraperitoneal injection. Two days following the treatment, animals were sacrificed and blood was withdrawn by cardiac puncture. AST and ALT enzyme levels were assessed as described above. Total triglycerides were measured using a kit purchased from Sigma-Aldrich Chemicals (St. Louis, Mo.) according to the manufacturer's instructions.
To assess naringenin ability to reduce circulating vLDL levels we measured total triglycerides levels in animal plasma.

[5] = 400 mg/day oral, hypercholesterolemic patients; cited from earlier work
[6] = rats, intraperitoneal injection; cited from earlier work
[7] = guinea pigs, intraperitoneal injection; cited from earlier work
[8] = 24 hours, brefeldin A 2.5 μg/ml

Structure (SMILES): O=C1C[C@@H](c2ccc(O)cc2)Oc2cc(O)cc(O)c21 [naringenin]
- effective dose of naringenin in cell culture [1]: 0.20 mM
- HCV core protein secretion (in words) [1, 8]: inhibits
- HCV positive strand RNA secretion (in words) [1, 8]: inhibits
- inhibition at 200 µM ([1]; Hepatitis C virus, 200 μM naringenin, short-term (24 hrs), infected Huh-7.5.1 cells): 80%
- inhibition of HCV (RNA) secretion, long-term treatment ([1]; long-term daily treatment of infected Huh7.5.1 cells, naringenin 200 μM, IFNα 1000 i.u.): 96±5%
- ApoB secretion (in words) (ApoB [2]): Inhibition
- decrease in ApoB secretion (ApoB [3]): 60%±7%
- increase of PPARα transcription (PPARα): 86%
- actin mRNA level (actin): remained unchanged
- ALT levels in plasma ([4]; 48 hrs following i.p. injection, all doses): no elevation
- AST levels in plasma ([4]; 48 hrs following i.p. injection, even at the highest dose (1500 mg/kg)): under 100 U/l
- total triglycerides in animal plasma ([4]; following i.p. naringenin injection): decrease
- animal survival ([4]; intraperitoneal injection, 60, 300, 1500 mg/kg, male SCID mice): not affected; also recorded: did not cause death
- lowering of LDL levels [5]: 17%
- LD50 (50% kill) [6]: 2000 mg/kg
- LD50 (50% kill) [7]: 2000 mg/kg
